Measured values published in PubChem BioAssay AID256 (DTP/NCI, 2004).
“And” between values parts separate entries of the source, which are not always exact repeats. Identical values can stand only once. Toxic doses and inconclusive results are not listed.

Test system: CD2F1 mice, L1210 leukemia ip, survival T/C
Test: NCI In Vivo Anticancer Drug Screen. Data for tumor model L1210 Leukemia (intraperitoneal) in CD2F1 (CDF1) mice
Settings: higher = longer survival
Summary of the method: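 Vehicle-treated tumor-bearing mice served as controls (C) for compound-treated mice (T). Reported figure is T divided by C.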

[1] = endpoint: mean survival time, dose: 75.0 mg/kg/injection, schedule: Q01DX001 (ip), vehicle: saline
[2] = endpoint: mean survival time, dose: 100.0 mg/kg/injection, schedule: Q04DX003 (ip), vehicle: saline with Tween-80
[3] = endpoint: mean survival time, dose: 200.0 mg/kg/injection, schedule: Q04DX003 (ip), vehicle: saline with Tween-80
[4] = endpoint: mean survival time, dose: 400.0 mg/kg/injection, schedule: Q04DX003 (ip), vehicle: saline with Tween-80
[5] = endpoint: mean survival time, dose: 25.0 mg/kg/injection, schedule: Q01DX009 (ip), vehicle: saline with Tween-80
[6] = endpoint: mean survival time, dose: 50.0 mg/kg/injection, schedule: Q01DX009 (ip), vehicle: saline with Tween-80
[7] = endpoint: mean survival time, dose: 100.0 mg/kg/injection, schedule: Q01DX001 (ip), vehicle: saline with Tween-80
[8] = endpoint: mean survival time, dose: 100.0 mg/kg/injection, schedule: Q01DX009 (ip), vehicle: saline with Tween-80
[9] = endpoint: mean survival time, dose: 200.0 mg/kg/injection, schedule: Q01DX009 (ip), vehicle: saline with Tween-80
[10] = endpoint: mean survival time, dose: 400.0 mg/kg/injection, schedule: Q01DX009 (ip), vehicle: saline with Tween-80
[11] = endpoint: mean survival time, dose: 100.0 mg/kg/injection, schedule: Q04DX002 (ip), vehicle: saline with Tween-80
[12] = endpoint: mean survival time, dose: 200.0 mg/kg/injection, schedule: Q04DX002 (ip), vehicle: saline with Tween-80
[13] = endpoint: mean survival time, dose: 400.0 mg/kg/injection, schedule: Q04DX002 (ip), vehicle: saline with Tween-80
[14] = endpoint: mean survival time, dose: 100.0 mg/kg/injection, schedule: Q01DX001 (ip), vehicle: saline
[15] = endpoint: mean survival time, dose: 200.0 mg/kg/injection, schedule: Q01DX001 (ip), vehicle: saline
[16] = endpoint: mean survival time, dose: 400.0 mg/kg/injection, schedule: Q01DX001 (ip), vehicle: saline

O=C(O)c1ccc(Cl)c2ncccc12
T/C (endpoint: mean survival time, dose: 37.5 mg/kg/injection, schedule: Q01DX009 (ip), vehicle: saline): 100 % of control
T/C (endpoint: mean survival time, dose: 75.0 mg/kg/injection, schedule: Q01DX009 (ip), vehicle: saline): 95 % of control
T/C (endpoint: mean survival time, dose: 75.0 mg/kg/injection, schedule: Q04DX003 (ip), vehicle: saline): 100 % of control
T/C (endpoint: mean survival time, dose: 150.0 mg/kg/injection, schedule: Q01DX009 (ip), vehicle: saline): 105 % of control
T/C (endpoint: mean survival time, dose: 150.0 mg/kg/injection, schedule: Q04DX003 (ip), vehicle: saline): 97 % of control
T/C (endpoint: mean survival time, dose: 300.0 mg/kg/injection, schedule: Q04DX003 (ip), vehicle: saline): 95 % of control

O=[N+]([O-])O.[Zn+2].c1ccncc1
T/C [1]: 108 % of control

O=C(CCCCl)Oc1ccccc1
T/C [2]: 87 % of control
T/C [3]: 87 % of control
T/C [4]: 103 % of control

C1CCC2CN(CCCN3CCOCC3)CC2C1 (stereo not drawn)
T/C (endpoint: mean survival time, dose: 100.0 mg/kg/injection, schedule: Q01DX009 (ip), vehicle: saline): 102 % of control
T/C (endpoint: mean survival time, dose: 200.0 mg/kg/injection, schedule: Q01DX009 (ip), vehicle: saline): 96 % of control

c1ccc(COC2CN3CCC2CC3)cc1 (stereo not drawn)
T/C [5]: 100 % of control
T/C [6]: 100 % of control

CC1(c2ccccc2)OCCO1
T/C [7]: 97 % of control
T/C [8]: 95 % of control
T/C [2]: 100 % of control
T/C (endpoint: mean survival time, dose: 200.0 mg/kg/injection, schedule: Q01DX001 (ip), vehicle: saline with Tween-80): 94 % of control
T/C [9]: 93 % of control
T/C [3]: 100 % of control
T/C (endpoint: mean survival time, dose: 400.0 mg/kg/injection, schedule: Q01DX001 (ip), vehicle: saline with Tween-80): 97 % of control
T/C [10]: 97 % of control
T/C [4]: 97 % of control

c1ccc(CC23CN(C4CCCCC4)CC24N(c2ccccc23)C23CN(C5CCCCC5)CC2(Cc2ccccc2)c2ccccc2N43)cc1 (stereo not drawn)
T/C [7]: 90 % of control

Cc1ccccc1NC(=O)Oc1ccc(Cl)cc1C
T/C [11]: 101 % of control
T/C [12]: 93 % of control
T/C [13]: 97 % of control

O=C(NC(=S)Nc1ccccc1Cl)c1ccc(Cl)cc1
T/C [11]: 103 % of control
T/C [12]: 88 % of control
T/C [13]: 88 % of control

[O-][n+]1c2cccc(O)c2[n+]([O-])c2cccc(O)c21
T/C [2]: 91 % of control
T/C [3]: 100 % of control
T/C [4]: 103 % of control

CCCOC(=O)OCCC
T/C (endpoint: mean survival time, dose: 25.0 mg/kg/injection, schedule: Q04DX003 (ip), vehicle: saline with Tween-80): 102 % of control
T/C (endpoint: mean survival time, dose: 50.0 mg/kg/injection, schedule: Q04DX003 (ip), vehicle: saline with Tween-80): 96 % of control
T/C [8]: 97 % of control
T/C [2]: 94 % of control
T/C [9]: 95 % of control
T/C [3]: 94 % of control
T/C [10]: 104 % of control
T/C [4]: 96 % of control

CCC1(C(=O)OC)CCC2C3CCC4CCCCC4(C)C3CCC21C (stereo not drawn)
T/C (endpoint: mean survival time, dose: 75.0 mg/kg/injection, schedule: Q04DX003 (sc), vehicle: steriod suspending solution): 103 % of control
T/C (endpoint: mean survival time, dose: 150.0 mg/kg/injection, schedule: Q04DX003 (sc), vehicle: steriod suspending solution): 101 % of control
T/C (endpoint: mean survival time, dose: 300.0 mg/kg/injection, schedule: Q04DX003 (sc), vehicle: steriod suspending solution): 101 % of control

CN(Cc1ccccc1)N=Nc1ccccc1
T/C (endpoint: mean survival time, dose: 18.75 mg/kg/injection, schedule: Q01DX009 (ip), vehicle: Klucel (hydroxypropylcellulose) (HPC)): 103 % of control
T/C (endpoint: mean survival time, dose: 37.5 mg/kg/injection, schedule: Q01DX009 (ip), vehicle: Klucel (hydroxypropylcellulose) (HPC)): 107 % of control
T/C [1]: 108 % of control
T/C (endpoint: mean survival time, dose: 75.0 mg/kg/injection, schedule: Q01DX009 (ip), vehicle: Klucel (hydroxypropylcellulose) (HPC)): 113 % of control
T/C (endpoint: mean survival time, dose: 150.0 mg/kg/injection, schedule: Q01DX001 (ip), vehicle: saline): 108 % of control
T/C (endpoint: mean survival time, dose: 150.0 mg/kg/injection, schedule: Q01DX009 (ip), vehicle: Klucel (hydroxypropylcellulose) (HPC)): 119 % of control
T/C (endpoint: mean survival time, dose: 300.0 mg/kg/injection, schedule: Q01DX001 (ip), vehicle: saline): 111 % of control

CNC(=O)Oc1cccc(NC(=O)OCc2ccccc2)c1
T/C [2]: 99 % of control
T/C [3]: 96 % of control
T/C [4]: 92 % of control

O=CO.[Cu+2]
T/C (endpoint: mean survival time, dose: 5.0 mg/kg/injection, schedule: Q01DX001 (ip), vehicle: saline): 90 % of control
T/C (endpoint: mean survival time, dose: 10.0 mg/kg/injection, schedule: Q01DX001 (ip), vehicle: saline): 98 % of control

CCN(Cc1cnc2nc(N)nc(N)c2n1)c1c(Cl)cc(C(=O)NC(CCC(=O)O)C(=O)O)cc1Cl (stereo not drawn)
T/C (endpoint: mean survival time, dose: 3.12 mg/kg/injection, schedule: Q01DX009 (ip), vehicle: sodium bicarbonate): 117 % of control
T/C (endpoint: mean survival time, dose: 6.25 mg/kg/injection, schedule: Q01DX009 (ip), vehicle: sodium bicarbonate): 117 % of control
T/C (endpoint: mean survival time, dose: 100.0 mg/kg/injection, schedule: Q01DX009 (ip), vehicle: sodium bicarbonate): 170 % of control

CN(C)C(=O)Nc1cccc(OP(=O)(N(C)C)N(C)C)c1
T/C [2]: 103 % of control
T/C [3]: 97 % of control
T/C [4]: 99 % of control

O=C(NCC1CCCC1)c1ccccc1
T/C [14]: 95 % of control
T/C [15]: 97 % of control
T/C [16]: 89 % of control

O=C(CCl)Nc1cccc(Cl)c1
T/C [8]: 92 % of control
T/C [2]: 97 % of control
T/C [9]: 95 % of control
T/C [3]: 111 % of control
T/C [4]: 104 % of control

COc1ccc(N=C2C=CC(=O)O2)cc1
T/C [5]: 95 % of control
T/C [6]: 100 % of control
T/C [8]: 97 % of control
T/C [2]: 101 % of control

CCC(=O)Oc1[nH]c(C)c(C(C)=O)c1C
T/C [8]: 100 % of control
T/C [2]: 102 % of control
T/C [9]: 97 % of control
T/C [3]: 97 % of control
T/C [10]: 100 % of control
T/C [4]: 94 % of control

N#CCSc1ncnc2nc[nH]c12
T/C (endpoint: mean survival time, dose: 15.0 mg/kg/injection, schedule: Q01DX009 (ip), vehicle: saline): 95 % of control and 107 % of control
T/C (endpoint: mean survival time, dose: 30.0 mg/kg/injection, schedule: Q01DX009 (ip), vehicle: saline): 110 % of control and 112 % of control
T/C (endpoint: mean survival time, dose: 60.0 mg/kg/injection, schedule: Q01DX009 (ip), vehicle: saline): 110 % of control
T/C (endpoint: median survival time, dose: 30.0 mg/kg/injection, schedule: Q01DX009 (ip), vehicle: saline): 100 % of control
T/C (endpoint: median survival time, dose: 60.0 mg/kg/injection, schedule: Q01DX009 (ip), vehicle: saline): 122 % of control

NNC(=O)c1cccc[n+]1[O-]
T/C (endpoint: mean survival time, dose: 12.5 mg/kg/injection, schedule: Q01DX001 (ip), vehicle: water): 98 % of control
T/C (endpoint: mean survival time, dose: 25.0 mg/kg/injection, schedule: Q01DX001 (ip), vehicle: water): 96 % of control
T/C (endpoint: mean survival time, dose: 50.0 mg/kg/injection, schedule: Q01DX001 (ip), vehicle: water): 93 % of control
T/C (endpoint: mean survival time, dose: 100.0 mg/kg/injection, schedule: Q01DX001 (ip), vehicle: water): 102 % of control

CCOC(=O)CSc1ccccc1
T/C (endpoint: mean survival time, dose: 25.0 mg/kg/injection, schedule: Q01DX005 (ip), vehicle: Klucel (hydroxypropylcellulose) (HPC)): 93 % of control
T/C (endpoint: mean survival time, dose: 50.0 mg/kg/injection, schedule: Q01DX005 (ip), vehicle: Klucel (hydroxypropylcellulose) (HPC)): 95 % of control
T/C [14]: 102 % of control
T/C (endpoint: mean survival time, dose: 100.0 mg/kg/injection, schedule: Q01DX005 (ip), vehicle: Klucel (hydroxypropylcellulose) (HPC)): 102 % of control
T/C [15]: 100 % of control
T/C (endpoint: mean survival time, dose: 200.0 mg/kg/injection, schedule: Q01DX005 (ip), vehicle: Klucel (hydroxypropylcellulose) (HPC)): 95 % of control
T/C [16]: 100 % of control
T/C (endpoint: mean survival time, dose: 400.0 mg/kg/injection, schedule: Q01DX005 (ip), vehicle: Klucel (hydroxypropylcellulose) (HPC)): 95 % of control

C1CN2CCOB(O1)OCC2
T/C (endpoint: mean survival time, dose: 100.0 mg/kg/injection, schedule: Q04DX003 (ip), vehicle: saline): 94 % of control
T/C (endpoint: mean survival time, dose: 200.0 mg/kg/injection, schedule: Q04DX003 (ip), vehicle: saline): 98 % of control
T/C (endpoint: mean survival time, dose: 400.0 mg/kg/injection, schedule: Q04DX003 (ip), vehicle: saline): 93 % of control

CNNC1CCC2C3CCc4cc(O)ccc4C3CCC12C (stereo not drawn)
T/C (endpoint: mean survival time, dose: 12.5 mg/kg/injection, schedule: Q01DX009 (ip), vehicle: Klucel (hydroxypropylcellulose) (HPC)): 91 % of control
T/C (endpoint: mean survival time, dose: 25.0 mg/kg/injection, schedule: Q01DX009 (ip), vehicle: Klucel (hydroxypropylcellulose) (HPC)): 94 % of control
T/C (endpoint: mean survival time, dose: 50.0 mg/kg/injection, schedule: Q01DX009 (ip), vehicle: Klucel (hydroxypropylcellulose) (HPC)): 91 % of control
